The supplement of paper PMC10307832

Legend:
Assay in all cases: relative viability (nuclei count vs DMSO), 5 days (fraction); higher = more cells survive
NCI-H460 = test system: NCI-H460
Outline: (§1)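 Values are medians from duplicate plates. Each reflects relative viability, defined as the nuclei count of treated wells over that of vehicle wells. Lung cancer cell lines in 1536-well plates were pin-tool dosed one day after seeding with one drug alone or with a fixed anchor-drug dose plus five library-drug doses (not always all listed) in √10 steps, then fixed, stained and imaged at 4× after 5 days.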

NCI-H1975 = test system: NCI-H1975
Outline: as §1

NCI-H2126 = test system: NCI-H2126
Outline: as §1

NCI-H596 = test system: NCI-H596
Outline: as §1

NCI-H727 = test system: NCI-H727
Outline: as §1

NCI-H2085 = test system: NCI-H2085
Outline: as §1

LCLC-103H = test system: LCLC-103H
Outline: as §1

LOU-NH91 = test system: LOU-NH91
Outline: as §1

RERF-LC-KJ = test system: RERF-LC-KJ
Outline: as §1

HARA = test system: HARA
Outline: as §1

NCI-H838 = test system: NCI-H838
Outline: as §1

NCI-H1734 = test system: NCI-H1734
Outline: as §1

CAL-12T = test system: CAL-12T
Outline: as §1

A-427 = test system: A-427
Outline: as §1

NCI-H647 = test system: NCI-H647
Outline: as §1

NCI-H1944 = test system: NCI-H1944
Outline: as §1

BEN = test system: BEN
Outline: as §1

ABC-1 = test system: ABC-1
Outline: as §1

NCI-H1666 = test system: NCI-H1666
Outline: as §1

NCI-H520 = test system: NCI-H520
Outline: as §1

SW 900 = test system: SW 900
Outline: as §1

NCI-H661 = test system: NCI-H661
Outline: as §1

NCI-H1651 = test system: NCI-H1651
Outline: as §1

`Cc1cn(-c2cc(NC(=O)c3ccc(C)c(Nc4nccc(-c5cccnc5)n4)c3)cc(C(F)(F)F)c2)cn1` [Nilotinib] + O=C(c1cc(Cc2n[nH]c(=O)c3ccccc23)ccc1F)N1CCN(C(=O)C2CC2)CC1 [Olaparib] (partner 8 µM) was tested, and the relative viability (NCI-H460; first compound 0.001 µM) was 0.318, the relative viability (NCI-H460; first compound 0.003162 µM) was 0.295 and the relative viability (NCI-H460; first compound 0.01 µM) was 0.496. The relative viability (NCI-H460; first compound 0.03162 µM) was 0.27, the relative viability (NCI-H460; first compound 0.1 µM) was 0.34 and the relative viability (NCI-H1975; first compound 0.001 µM) was 0.553. For the same compound, the relative viability (NCI-H1975; first compound 0.003162 µM) was 0.809, the relative viability (NCI-H1975; first compound 0.01 µM) was 0.786 and the relative viability (NCI-H1975; first compound 0.03162 µM) was 0.491. It also gave a relative viability (NCI-H1975; first compound 0.1 µM) of 0.63, a relative viability (NCI-H2126; first compound 0.001 µM) of 0.902 and a relative viability (NCI-H2126; first compound 0.003162 µM) of 1.03. It also gave a relative viability (NCI-H2126; first compound 0.01 µM) of 1.11, a relative viability (NCI-H2126; first compound 0.03162 µM) of 0.876 and a relative viability (NCI-H2126; first compound 0.1 µM) of 0.83. The relative viability (NCI-H596; first compound 0.001 µM) was 0.651, the relative viability (NCI-H596; first compound 0.003162 µM) was 0.702 and the relative viability (NCI-H596; first compound 0.01 µM) was 0.711. The relative viability (NCI-H596; first compound 0.03162 µM) was 0.646, the relative viability (NCI-H596; first compound 0.1 µM) was 0.671 and the relative viability (NCI-H727; first compound 0.001 µM) was 0.574. The relative viability (NCI-H727; first compound 0.003162 µM) was 0.847, the relative viability (NCI-H727; first compound 0.01 µM) was 0.658 and the relative viability (NCI-H727; first compound 0.03162 µM) was 0.732. It also gave a relative viability (NCI-H727; first compound 0.1 µM) of 0.732, a relative viability (NCI-H2085; first compound 0.001 µM) of 0.747 and a relative viability (NCI-H2085; first compound 0.003162 µM) of 0.834. It also gave a relative viability (NCI-H2085; first compound 0.01 µM) of 0.797, a relative viability (NCI-H2085; first compound 0.03162 µM) of 0.889 and a relative viability (NCI-H2085; first compound 0.1 µM) of 0.684. For the same compound, the relative viability (LCLC-103H; first compound 0.001 µM) was 0.761, the relative viability (LCLC-103H; first compound 0.003162 µM) was 0.903 and the relative viability (LCLC-103H; first compound 0.01 µM) was 0.969. For the same compound, the relative viability (LCLC-103H; first compound 0.03162 µM) was 0.749, the relative viability (LCLC-103H; first compound 0.1 µM) was 0.8 and the relative viability (LOU-NH91; first compound 0.001 µM) was 0.877. The relative viability (LOU-NH91; first compound 0.003162 µM) was 1.05, the relative viability (LOU-NH91; first compound 0.01 µM) was 1.09 and the relative viability (LOU-NH91; first compound 0.03162 µM) was 0.94. The relative viability (LOU-NH91; first compound 0.1 µM) was 0.997, the relative viability (RERF-LC-KJ; first compound 0.001 µM) was 0.816 and the relative viability (RERF-LC-KJ; first compound 0.003162 µM) was 1.03. For the same compound, the relative viability (RERF-LC-KJ; first compound 0.01 µM) was 0.976, the relative viability (RERF-LC-KJ; first compound 0.03162 µM) was 0.826 and the relative viability (RERF-LC-KJ; first compound 0.1 µM) was 0.892. The relative viability (HARA; first compound 0.001 µM) was 0.639, the relative viability (HARA; first compound 0.003162 µM) was 0.867 and the relative viability (HARA; first compound 0.01 µM) was 0.676. The relative viability (HARA; first compound 0.03162 µM) was 0.535, the relative viability (HARA; first compound 0.1 µM) was 0.747 and the relative viability (NCI-H838; first compound 0.001 µM) was 0.789. For the same compound, the relative viability (NCI-H838; first compound 0.003162 µM) was 1.01, the relative viability (NCI-H838; first compound 0.01 µM) was 0.878 and the relative viability (NCI-H838; first compound 0.03162 µM) was 0.838. It also gave a relative viability (NCI-H838; first compound 0.1 µM) of 0.759, a relative viability (NCI-H1734; first compound 0.001 µM) of 0.576 and a relative viability (NCI-H1734; first compound 0.003162 µM) of 0.656. For the same compound, the relative viability (NCI-H1734; first compound 0.01 µM) was 0.689, the relative viability (NCI-H1734; first compound 0.03162 µM) was 0.543 and the relative viability (NCI-H1734; first compound 0.1 µM) was 0.497. It also gave a relative viability (CAL-12T; first compound 0.001 µM) of 0.648, a relative viability (CAL-12T; first compound 0.003162 µM) of 0.677 and a relative viability (CAL-12T; first compound 0.01 µM) of 0.738. It also gave a relative viability (CAL-12T; first compound 0.03162 µM) of 0.67, a relative viability (CAL-12T; first compound 0.1 µM) of 0.793 and a relative viability (A-427; first compound 0.001 µM) of 0.76. The relative viability (A-427; first compound 0.003162 µM) was 0.874, the relative viability (A-427; first compound 0.01 µM) was 0.86 and the relative viability (A-427; first compound 0.03162 µM) was 0.804. It also gave a relative viability (A-427; first compound 0.1 µM) of 0.936, a relative viability (NCI-H647; first compound 0.001 µM) of 0.527 and a relative viability (NCI-H647; first compound 0.003162 µM) of 0.735. The relative viability (NCI-H647; first compound 0.01 µM) was 0.649, the relative viability (NCI-H647; first compound 0.03162 µM) was 0.482 and the relative viability (NCI-H647; first compound 0.1 µM) was 0.544. For the same compound, the relative viability (NCI-H1944; first compound 0.001 µM) was 0.379, the relative viability (NCI-H1944; first compound 0.003162 µM) was 0.397 and the relative viability (NCI-H1944; first compound 0.01 µM) was 0.462. For the same compound, the relative viability (NCI-H1944; first compound 0.03162 µM) was 0.435, the relative viability (NCI-H1944; first compound 0.1 µM) was 0.45 and the relative viability (BEN; first compound 0.001 µM) was 1.11. For the same compound, the relative viability (BEN; first compound 0.003162 µM) was 1.1, the relative viability (BEN; first compound 0.01 µM) was 1.25 and the relative viability (BEN; first compound 0.03162 µM) was 0.996. For the same compound, the relative viability (BEN; first compound 0.1 µM) was 1, the relative viability (ABC-1; first compound 0.001 µM) was 0.671 and the relative viability (ABC-1; first compound 0.003162 µM) was 0.873. The relative viability (ABC-1; first compound 0.01 µM) was 0.778, the relative viability (ABC-1; first compound 0.03162 µM) was 0.828 and the relative viability (ABC-1; first compound 0.1 µM) was 0.673. For the same compound, the relative viability (NCI-H1666; first compound 0.001 µM) was 0.71, the relative viability (NCI-H1666; first compound 0.003162 µM) was 0.805 and the relative viability (NCI-H1666; first compound 0.01 µM) was 0.803. The relative viability (NCI-H1666; first compound 0.03162 µM) was 0.778, the relative viability (NCI-H1666; first compound 0.1 µM) was 0.754 and the relative viability (NCI-H520; first compound 0.001 µM) was 0.321. It also gave a relative viability (NCI-H520; first compound 0.003162 µM) of 0.293, a relative viability (NCI-H520; first compound 0.01 µM) of 0.305 and a relative viability (NCI-H520; first compound 0.03162 µM) of 0.316. It also gave a relative viability (NCI-H520; first compound 0.1 µM) of 0.294, a relative viability (SW 900; first compound 0.003162 µM) of 0.916 and a relative viability (SW 900; first compound 0.01 µM) of 0.965. For the same compound, the relative viability (SW 900; first compound 0.03162 µM) was 0.77, the relative viability (SW 900; first compound 0.1 µM) was 0.776 and the relative viability (NCI-H661; first compound 0.001 µM) was 0.754. It also gave a relative viability (NCI-H661; first compound 0.003162 µM) of 0.893, a relative viability (NCI-H661; first compound 0.01 µM) of 0.949 and a relative viability (NCI-H661; first compound 0.03162 µM) of 0.672. The relative viability (NCI-H661; first compound 0.1 µM) was 0.748, the relative viability (NCI-H1651; first compound 0.001 µM) was 0.173 and the relative viability (NCI-H1651; first compound 0.003162 µM) was 0.187. It also gave a relative viability (NCI-H1651; first compound 0.01 µM) of 0.168, a relative viability (NCI-H1651; first compound 0.03162 µM) of 0.156 and a relative viability (NCI-H1651; first compound 0.1 µM) of 0.181.
